Measured values: patent publication US7385026B1, “Modified ghrelin polypeptides” (priority 1999, dated 2008)
Square brackets hold non-standard residues; d marks the D form. Peptide text beside a SMILES is read from it. * marks the point of attachment. Octyl = CCCCCCCC*

These molecules were tested against T1, rat GHS-receptor (GHR-R) (Rattus norvegicus, UniProt O08725) (assay: Ca-releasing activity (increase in intracellular calcium) in CHO-GHSR62 cells, FLIPR). Settings: CHO-GHSR62 cells (CHO cells expressing rat GHS receptor), FLIPR; read-out: Ca-releasing activity EC50.
T1 construct: A full-length cDNA for rat GHR-R was obtained by RT-PCR; expressed in transfected cells
Type: cell-based
Source text: To assay an increase in the intracellular calcium ion concentration (Ca-releasing activity) occurring upon binding of a GH secretagogue (GHS) to GHS-receptor (GHR-R), a cell strain expressing rat GHR-R was created in the following manner. A full-length cDNA for rat GHR-R was obtained by RT-PCR (reverse transcriptase-polymerase chain reaction) where a cDNA derived from rat brain was used as template. From the nucleotide sequence of known rat GHR-R [K. K. Mckee, et al, Molecular Endocrinology 11, 415-423 (1997)], sense and antisense primers consisting of the following nucleotide sequences were synthesized.
The amplified cDNA was ligated to vector pcDNAIII (Invitrogen) to construct expression vector GHSR-pcDNAIII. CHO cells were transformed via the expression vector, and the transformed cells stably expressing GHR-R were selected in a medium containing 1 μg/ml G418. […] A change in the intracellular calcium ion concentration (Ca-releasing activity) was measured by an FLIPR system (Molecular Device). Before this measurement, 4×10^4 CHO-GHSR62 cells were put to a 96-well microplate with black wall (Corning Co., Ltd) and cultured for 12 to 15 hours. Then, the cells were incubated with 4 μM fluorescent Fluo4 (Molecular Probe Co., Ltd) for 1 hour and washed four times with Hank's BSS (Hank's Balanced Salt Solution) containing 20 mM Hepes ([N-2-hydroxyethyl]-piperazine-N-[2-ethanesulfonic acid]) and 2.5 mM probenecid, and the Ca-releasing activity was assayed by adding a sample and measuring a change in the fluorescence.
Peptide fragments obtained by partially digested the rat- and human-derived ghrelins by various proteases, or chemically synthesized peptides, were examined for their Ca releasing activity in order to determine a core amino acid sequence and the optimum chain length of a modifying fatty acid necessary for Ca-releasing activity.
The Ca-increasing activities of the ghrelin derivative peptide-type compounds synthesized in Example 10 and the natural ghrelin peptide were measured in the same manner as in Example 1.
In this examination, the intracellular Ca-releasing activity in CHO cells expressing rat GSH receptor was used as the indicator.

T1 sequence (O08725 whole entry): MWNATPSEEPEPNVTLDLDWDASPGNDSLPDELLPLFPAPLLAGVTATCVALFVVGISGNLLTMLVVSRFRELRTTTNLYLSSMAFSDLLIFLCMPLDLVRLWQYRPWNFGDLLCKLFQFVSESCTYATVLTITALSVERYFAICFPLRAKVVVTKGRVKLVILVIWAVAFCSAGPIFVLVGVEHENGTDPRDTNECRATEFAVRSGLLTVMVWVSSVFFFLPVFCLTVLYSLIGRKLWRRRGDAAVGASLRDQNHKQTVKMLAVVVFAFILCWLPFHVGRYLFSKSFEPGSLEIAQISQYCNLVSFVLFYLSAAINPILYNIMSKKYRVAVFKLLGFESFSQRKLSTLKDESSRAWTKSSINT

| Compound | EC50 [nM] |
| --- | --- |
| CCCCCCCCSC[C@H](NC(=O)[C@H](CO)NC(=O)CN)C(=O)N[C@@H](Cc1ccccc1)C(=O)N[C@@H](CC(C)C)C(=O)N[C@@H](CO)C(=O)N1CCC[C@H]1C(N)=O [Compound 48, [Cys^3(Octyl)]-Ghrelin (1-7)-amide] (H-GSC(Octyl)FLSP-NH2) | 7.4 |
| CCCCCCCCSC[C@H](NC(=O)[C@H](CO)NC(=O)CN)C(=O)N[C@H](Cc1ccccc1)C(=O)N[C@@H](CC(C)C)C(=O)N[C@@H](CO)C(=O)N1CCC[C@H]1C(N)=O [Compound 49, [Cys^3(Octyl), ^DPhe^4]Ghrelin (1-7)-amide] (H-GSC(Octyl)[dF]LSP-NH2) | 3000 |
| CCCCCCCCOC[C@@H](NC(=O)[C@H](CO)NC(=O)CN)C(=O)N[C@@H](Cc1ccccc1)C(=O)N[C@@H](CC(C)C)C(=O)N[C@@H](CO)C(=O)N1CCC[C@H]1C(N)=O [Compound 52, [^DSer^3(Octyl)]-Ghrelin (1-7)-amide] | > 10000 |
| CCCCCCCCOC[C@@H](NC(=O)[C@H](CO)NC(=O)CN)C(=O)N[C@H](Cc1ccccc1)C(=O)N[C@@H](CC(C)C)C(=O)N[C@@H](CO)C(=O)N1CCC[C@H]1C(N)=O [Compound 53, [^DSer^3(Octyl), ^DPhe^4]-Ghrelin (1-7)-amide] | > 10000 |
| CCCCCCCNC(=O)C[C@H](NC(=O)[C@H](CO)NC(=O)CN)C(=O)N[C@@H](Cc1ccccc1)C(=O)N[C@@H](CC(C)C)C(=O)N[C@@H](CO)C(=O)N1CCC[C@H]1C(=O)N[C@@H](CCC(=O)O)C(=O)N[C@@H](Cc1c[nH]cn1)C(=O)N[C@@H](CCC(N)=O)C(=O)N[C@@H](CCCNC(=N)N)C(=O)N[C@H](C(=O)N[C@@H](CCC(N)=O)C(=O)N[C@@H](CCC(N)=O)C(=O)N[C@@H](CCCNC(=N)N)C(=O)N[C@@H](CCCCN)C(=O)N[C@@H](CCC(=O)O)C(=O)N[C@@H](CO)C(=O)N[C@@H](CCCCN)C(=O)N[C@@H](CCCCN)C(=O)N1CCC[C@H]1C(=O)N1CCC[C@H]1C(=O)N[C@@H](C)C(=O)N[C@@H](CCCCN)C(=O)N[C@@H](CC(C)C)C(=O)N[C@@H](CCC(N)=O)C(=O)N1CCC[C@H]1C(=O)N[C@@H](CCCNC(=N)N)C(=O)O)C(C)C [Compound 55, [Asp^3(NH-Heptyl)]-hGhrelin] | 11 |
| CCCCCCCC(=O)O[C@H](C)[C@H](NC(=O)[C@H](CO)NC(=O)CN)C(=O)N[C@@H](Cc1ccccc1)C(=O)N[C@@H](CC(C)C)C(=O)N[C@@H](CO)C(=O)N1CCC[C@H]1C(=O)N[C@@H](CCC(=O)O)C(=O)N[C@@H](Cc1c[nH]cn1)C(=O)N[C@@H](CCC(N)=O)C(=O)N[C@@H](CCCNC(=N)N)C(=O)N[C@H](C(=O)N[C@@H](CCC(N)=O)C(=O)N[C@@H](CCC(N)=O)C(=O)N[C@@H](CCCNC(=N)N)C(=O)N[C@@H](CCCCN)C(=O)N[C@@H](CCC(=O)O)C(=O)N[C@@H](CO)C(=O)N[C@@H](CCCCN)C(=O)N[C@@H](CCCCN)C(=O)N1CCC[C@H]1C(=O)N1CCC[C@H]1C(=O)N[C@@H](C)C(=O)N[C@@H](CCCCN)C(=O)N[C@@H](CC(C)C)C(=O)N[C@@H](CCC(N)=O)C(=O)N1CCC[C@H]1C(=O)N[C@@H](CCCNC(=N)N)C(=O)O)C(C)C [Compound 59, [Thr^3(Octanoyl)]-hGhrelin] | 10 |
| CC(C)C[C@H](NC(=O)[C@H](CCCCN)NC(=O)[C@H](C)NC(=O)[C@@H]1CCCN1C(=O)[C@@H]1CCCN1C(=O)[C@H](CCCCN)NC(=O)[C@H](CCCCN)NC(=O)[C@H](CO)NC(=O)[C@H](CCC(=O)O)NC(=O)[C@H](CCCCN)NC(=O)[C@H](CCCNC(=N)N)NC(=O)[C@H](CCC(N)=O)NC(=O)[C@H](CCC(N)=O)NC(=O)[C@@H](NC(=O)[C@H](CCCNC(=N)N)NC(=O)[C@H](CCC(N)=O)NC(=O)[C@H](Cc1c[nH]cn1)NC(=O)[C@H](CCC(=O)O)NC(=O)[C@@H]1CCCN1C(=O)[C@H](CO)NC(=O)[C@H](CC(C)C)NC(=O)[C@H](Cc1ccccc1)NC(=O)[C@H](Cc1c[nH]c2ccccc12)NC(=O)[C@H](CO)NC(=O)CN)C(C)C)C(=O)N[C@@H](CCC(N)=O)C(=O)N1CCC[C@H]1C(=O)N[C@@H](CCCNC(=N)N)C(=O)O [Compound 62, [Trp^3]-hGhrelin] | 31 |

The next molecules have a lower EC50 than those just listed; values first:

| EC50 [nM] | Compound |
| --- | --- |
| 5.8 | CCCCCCCCOC[C@H](NC(=O)[C@H](CO)NC(=O)CN)C(=O)N[C@@H](Cc1ccccc1)C(=O)N[C@@H](CC(C)C)C(=O)N[C@@H](CO)C(=O)N1CCC[C@H]1C(N)=O [Compound 50, [Ser^3(Octyl)]-Ghrelin (1-7)-amide] |
| 5.1 | CCCCCCCOC(=O)C[C@H](NC(=O)[C@H](CO)NC(=O)CN)C(=O)N[C@@H](Cc1ccccc1)C(=O)N[C@@H](CC(C)C)C(=O)N[C@@H](CO)C(=O)N1CCC[C@H]1C(=O)N[C@@H](CCC(=O)O)C(=O)N[C@@H](Cc1c[nH]cn1)C(=O)N[C@@H](CCC(N)=O)C(=O)N[C@@H](CCCNC(=N)N)C(=O)N[C@H](C(=O)N[C@@H](CCC(N)=O)C(=O)N[C@@H](CCC(N)=O)C(=O)N[C@@H](CCCNC(=N)N)C(=O)N[C@@H](CCCCN)C(=O)N[C@@H](CCC(=O)O)C(=O)N[C@@H](CO)C(=O)N[C@@H](CCCCN)C(=O)N[C@@H](CCCCN)C(=O)N1CCC[C@H]1C(=O)N1CCC[C@H]1C(=O)N[C@@H](C)C(=O)N[C@@H](CCCCN)C(=O)N[C@@H](CC(C)C)C(=O)N[C@@H](CCC(N)=O)C(=O)N1CCC[C@H]1C(=O)N[C@@H](CCCNC(=N)N)C(=O)O)C(C)C [Compound 54, [Asp^3(O-Heptyl)]-hGhrelin] |
| 2.6 | CCCCCCCC(=O)NC[C@H](NC(=O)[C@H](CO)NC(=O)CN)C(=O)N[C@@H](Cc1ccccc1)C(=O)N[C@@H](CC(C)C)C(=O)N[C@@H](CO)C(=O)N1CCC[C@H]1C(=O)N[C@@H](CCC(=O)O)C(=O)N[C@@H](Cc1cnc[nH]1)C(=O)N[C@@H](CCC(N)=O)C(=O)N[C@@H](CCCNC(=N)N)C(=O)N[C@H](C(=O)N[C@@H](CCC(N)=O)C(=O)N[C@@H](CCC(N)=O)C(=O)N[C@@H](CCCNC(=N)N)C(=O)N[C@@H](CCCCN)C(=O)N[C@@H](CCC(=O)O)C(=O)N[C@@H](CO)C(=O)N[C@@H](CCCCN)C(=O)N[C@@H](CCCCN)C(=O)N1CCC[C@H]1C(=O)N1CCC[C@H]1C(=O)N[C@@H](C)C(=O)N[C@@H](CCCCN)C(=O)N[C@@H](CC(C)C)C(=O)N[C@@H](CCC(N)=O)C(=O)N1CCC[C@H]1C(=O)N[C@@H](CCCNC(=N)N)C(=O)O)C(C)C [Compound 56, [Dap^3(Octanoyl)]-hGhrelin] |
| 1.4 | CCCCCCCSSC[C@H](NC(=O)[C@H](CO)NC(=O)CN)C(=O)N[C@@H](Cc1ccccc1)C(=O)N[C@@H](CC(C)C)C(=O)N[C@@H](CO)C(=O)N1CCC[C@H]1C(=O)N[C@@H](CCC(=O)O)C(=O)N[C@@H](Cc1c[nH]cn1)C(=O)N[C@@H](CCC(N)=O)C(=O)N[C@@H](CCCNC(=N)N)C(=O)N[C@H](C(=O)N[C@@H](CCC(N)=O)C(=O)N[C@@H](CCC(N)=O)C(=O)N[C@@H](CCCNC(=N)N)C(=O)N[C@@H](CCCCN)C(=O)N[C@@H](CCC(=O)O)C(=O)N[C@@H](CO)C(=O)N[C@@H](CCCCN)C(=O)N[C@@H](CCCCN)C(=O)N1CCC[C@H]1C(=O)N1CCC[C@H]1C(=O)N[C@@H](C)C(=O)N[C@@H](CCCCN)C(=O)N[C@@H](CC(C)C)C(=O)N[C@@H](CCC(N)=O)C(=O)N1CCC[C@H]1C(=O)N[C@@H](CCCNC(=N)N)C(=O)O)C(C)C [Compound 57] |
